# According to patent US20230295200A1 (REGENTS OF THE UNIVERSITY OF MICHIGAN, priority 2022, published 2023):
# Biological target: T1, STAT6 protein (Homo sapiens, UniProt P42226)
# T1 sequence (P42226 1-847): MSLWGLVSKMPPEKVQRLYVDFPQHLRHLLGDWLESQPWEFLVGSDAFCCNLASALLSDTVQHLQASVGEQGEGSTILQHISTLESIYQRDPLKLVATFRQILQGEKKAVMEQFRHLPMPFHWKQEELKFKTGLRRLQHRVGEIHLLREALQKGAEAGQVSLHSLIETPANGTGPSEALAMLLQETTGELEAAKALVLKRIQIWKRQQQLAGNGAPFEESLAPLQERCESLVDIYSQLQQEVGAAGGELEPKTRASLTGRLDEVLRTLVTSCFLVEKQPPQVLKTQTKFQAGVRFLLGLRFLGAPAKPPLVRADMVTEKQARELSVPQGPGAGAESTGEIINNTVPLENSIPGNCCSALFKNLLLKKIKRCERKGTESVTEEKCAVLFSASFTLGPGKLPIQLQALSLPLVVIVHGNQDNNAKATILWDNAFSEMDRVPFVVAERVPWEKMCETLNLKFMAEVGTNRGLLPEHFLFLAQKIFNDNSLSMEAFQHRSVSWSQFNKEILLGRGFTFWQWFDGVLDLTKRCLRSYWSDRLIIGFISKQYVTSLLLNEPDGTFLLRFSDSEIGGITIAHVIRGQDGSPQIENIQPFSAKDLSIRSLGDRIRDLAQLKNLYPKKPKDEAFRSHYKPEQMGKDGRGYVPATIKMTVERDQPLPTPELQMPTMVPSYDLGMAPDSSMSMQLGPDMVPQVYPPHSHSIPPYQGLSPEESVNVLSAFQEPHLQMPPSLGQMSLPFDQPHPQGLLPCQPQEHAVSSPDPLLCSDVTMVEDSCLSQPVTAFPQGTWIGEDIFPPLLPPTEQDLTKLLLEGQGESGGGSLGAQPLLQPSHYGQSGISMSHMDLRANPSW
# Experiment: Fluorescence polarization (FP) binding assay, STAT6
# Conditions: FP competition, 5 nM fluorescein-labeled tracer, 200 nM protein, PBS pH7.4; read-out: Binding STAT6
# Outline: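 Polarization read after 1 h equilibration at room temperature (preceded by 15 min shaking) of 200 nM STAT5 and/or STAT6 with 5 nM fluorescein tracer. Buffer: PBS pH 7.4 plus 0.01% BGG, 0.01% Tween-20, 2 mM DTT; inhibition constants derived by nonlinear fitting.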
row,Structure (SMILES),Ki
1,"CC(=O)N1CC[C@H]2CC[C@@H](C(=O)NC3(c4ccccc4)CCOCC3)N2C(=O)[C@@H](NC(=O)c2cc3cc(C(F)(F)P(=O)(O)O)ccc3[nH]2)C1 [Compound 341, ((2-(((5S,8S,10aR)-3-acetyl-6-oxo-8-((4-phenyltetrahydro-2H-pyran-4-yl)carbamoyl)decahydropyrrolo[1,2-a][1,5]diazocin-5-yl)carbamoyl)-1H-indol-5-yl)difluoromethyl)phosphonic acid]",1 to 10 µM
2,"CC(=O)N1CC[C@H]2CC[C@@H](C(=O)N(Cc3ccccc3)C3CCCCC3)N2C(=O)[C@@H](NC(=O)c2cc3cc(C(F)(F)P(=O)(O)O)ccc3[nH]2)C1 [Compound 342, ((2-(((5S,8S,10aR)-3-acetyl-8-(benzyl(cyclohexyl)carbamoyl)-6-oxodecahydropyrrolo[1,2-a][1,5]diazocin-5-yl)carbamoyl)-1H-indol-5-yl)difluoromethyl)phosphonic acid]",1 to 10 µM
3,"CC(=O)N1CC[C@H]2CC[C@@H](C(=O)N3CCc4c(F)cccc4C3)N2C(=O)[C@@H](NC(=O)c2cc3cc(C(F)(F)P(=O)(O)O)ccc3[nH]2)C1 [Compound 343, ((2-(((5S,8S,10aR)-3-acetyl-8-(5-fluoro-1,2,3,4-tetrahydroisoquinoline-2-carbonyl)-6-oxodecahydropyrrolo[1,2-a][1,5]diazocin-5-yl)carbamoyl)-1H-indol-5-yl)difluoromethyl)phosphonic acid]",1 to 10 µM
4,"CC(=O)N1CC[C@H]2CC[C@@H](C(=O)N3CCc4cc(F)ccc4C3)N2C(=O)[C@@H](NC(=O)c2cc3cc(C(F)(F)P(=O)(O)O)ccc3[nH]2)C1 [Compound 344, ((2-(((5S,8,10aR)-3-acetyl-8-(6-fluoro-1,2,3,4-tetrahydroisoquinoline-2-carbonyl)-6-oxodecahydropyrrolo[1,2-a][1,5]diazocin-5-yl)carbamoyl)-1H-indol-5-yl)difluoromethyl)phosphonic acid]",> 10 µM
5,"CC(=O)N1CC[C@H]2CC[C@@H](C(=O)N3CCc4ccc(F)cc4C3)N2C(=O)[C@@H](NC(=O)c2cc3cc(C(F)(F)P(=O)(O)O)ccc3[nH]2)C1 [Compound 355, ((2-(((5S,8S,10aR)-3-acetyl-8-(7-fluoro-1,2,3,4-tetrahydroisoquinoline-2-carbonyl)-6-oxodecahydropyrrolo[1,2-a][1,5]diazocin-5-yl)carbamoyl)-1H-indol-5-yl)difluoromethyl)phosphonic acid]",> 10 µM
6,"CC(=O)N1CC[C@H]2CC[C@@H](C(=O)N3CCc4cccc(F)c4C3)N2C(=O)[C@@H](NC(=O)c2cc3cc(C(F)(F)P(=O)(O)O)ccc3[nH]2)C1 [Compound 356, ((2-(((5S,8S,10aR)-3-acetyl-8-(8-fluoro-1,2,3,4-tetrahydroisoquinoline-2-carbonyl)-6-oxodecahydropyrrolo[1,2-a][1,5]diazocin-5-yl)carbamoyl)-1H-indol-5-yl)difluoromethyl)phosphonic acid]",> 10 µM
7,"CC(=O)N1CC[C@H]2CC[C@@H](C(=O)N3CCc4ccc(C)cc4C3)N2C(=O)[C@@H](NC(=O)c2cc3cc(C(F)(F)P(=O)(O)O)ccc3[nH]2)C1 [Compound 357, ((2-(((5S,8S,10aR)-3-acetyl-8-(7-methyl-1,2,3,4-tetrahydroisoquinoline-2-carbonyl)-6-oxodecahydropyrrolo[1,2-a][1,5]diazocin-5-yl)carbamoyl)-1H-indol-5-yl)difluoromethyl)phosphonic acid]",> 10 µM
8,"CC(=O)N1CC[C@H]2CC[C@@H](C(=O)N3CCc4ccc(C(F)(F)F)cc4C3)N2C(=O)[C@@H](NC(=O)c2cc3cc(C(F)(F)P(=O)(O)O)ccc3[nH]2)C1 [Compound 358, ((2-(((5S,8S,10aR)-3-acetyl-6-oxo-8-(7-(trifluoromethyl)-1,2,3,4-tetrahydroisoquinoline-2-carbonyl)decahydropyrrolo[1,2-a][1,5]diazocin-5-yl)carbamoyl)-1H-indol-5-yl)difluoromethyl)phosphonic acid]",> 10 µM
9,"CC(=O)N1CC[C@H]2CC[C@@H](C(=O)N3Cc4ccccc4C3)N2C(=O)[C@@H](NC(=O)c2cc3cc(C(F)(F)P(=O)(O)O)ccc3[nH]2)C1 [Compound 359, ((2-(((5S,8S,10aR)-3-acetyl-8-(isoindoline-2-carbonyl)-6-oxodecahydropyrrolo[1,2-a][1,5]diazocin-5-yl)carbamoyl)-1H-indol-5-yl)difluoromethyl)phosphonic acid]",0.1 to 1 µM
10,"CC(=O)N1CC[C@H]2CC[C@@H](C(=O)N(C)c3ccccc3)N2C(=O)[C@@H](NC(=O)c2cc3cc(C(F)(F)P(=O)(O)O)ccc3[nH]2)C1 [Compound 360, ((2-(((5S,8S,10aR)-3-acetyl-8-(methyl(phenyl)carbamoyl)-6-oxodecahydropyrrolo[1,2-a][1,5]diazocin-5-yl)carbamoyl)-1H-indol-5-yl)difluoromethyl)phosphonic acid]",> 10 µM
11,"CC(=O)N1CC[C@H]2CC[C@@H](C(=O)Nc3ccccc3)N2C(=O)[C@@H](NC(=O)c2cc3cc(C(F)(F)P(=O)(O)O)ccc3[nH]2)C1 [Compound 361, ((2-(((5S,8S,10aR)-3-acetyl-6-oxo-8-(phenylcarbamoyl)decahydropyrrolo [1,2-a][1,5]diazocin-5-yl)carbamoyl)-1H-indol-5-yl)difluoromethyl)phosphonic acid]",> 10 µM
12,"CC(=O)N1CC[C@H]2CC[C@@H](C(=O)N(c3ccccc3)c3ccccc3)N2C(=O)[C@@H](NC(=O)c2cc3cc(C(F)(F)P(=O)(O)O)ccc3[nH]2)C1 [Compound 362, ((2-(((5S,8S,10aR)-3-acetyl-8-(diphenylcarbamoyl)-6-oxodecahydropyrrolo[1,2-a][1,5]diazocin-5-yl)carbamoyl)-1H-indol-5-yl)difluoromethyl)phosphonic acid]",1 to 10 µM
13,"O=C(N[C@H]1CCC[C@H]2CC[C@@H](C(=O)N3CCc4ccccc4C3)N2C1=O)c1cc2cc(C(F)(F)P(=O)(O)O)ccc2[nH]1 [Compound 363, (difluoro(2-(((3S,6S,9aS)-5-oxo-3-(1,2,3,4-tetrahydroisoquinoline-2-carbonyl)octahydro-1H-pyrrolo[1,2-a]azepin-6-yl)carbamoyl)-1H-indol-5-yl)methyl)phosphonic acid]",> 10 µM
14,"CC(C)C(=O)N1CC[C@H]2CC[C@@H](C(=O)N3CCc4ccccc4C3)N2C(=O)[C@@H](NC(=O)c2cc3cc(C(F)(F)P(=O)(O)O)ccc3[nH]2)C1 [Compound 364, (difluoro(2-(((5S,8S,10aR)-3-isobutyryl-6-oxo-8-(1,2,3,4-tetrahydroisoquinoline-2-carbonyl)decahydropyrrolo[1,2-a][1,5]diazocin-5-yl)carbamoyl)-1H-indol-5-yl)methyl)phosphonic acid]",> 10 µM
15,"CN1CCC(C(=O)N2CC[C@H]3CC[C@@H](C(=O)N4CCc5ccccc5C4)N3C(=O)[C@@H](NC(=O)c3cc4cc(C(F)(F)P(=O)(O)O)ccc4[nH]3)C2)CC1 [Compound 365, (difluoro(2-(((5S,8S,10aR)-3-(1-methylpiperidine-4-carbonyl)-6-oxo-8-(1,2,3,4-tetrahydroisoquinoline-2-carbonyl)decahydropyrrolo[1,2-a][1,5]diazocin-5-yl)carbamoyl)-1H-indol-5-yl)methyl)phosphonic acid]",> 10 µM
